In PubChem BioAssay AID504889 (The Scripps Research Institute Molecular Screening Center, 2011) one finds IC50 data, which are given here for 24 compounds.

Activity calls are given as the source filed them. No rule for the calls is given here.

The assay deals with MCHR1. Briefly: antagonism of melanin-concentrating hormone receptor MCHR1 – cell-based, fluorescence, dose response, set 2, selectivity assay for GPR7 antagonist project, late-stage follow-up (AID 504889). Conditions: MCHR1-expressing cells, antagonist mode.

By IC50 is commonly meant the concentration that inhibits the measured activity by half. As for `COc1ccc(Oc2c(Cl)cnn(-c3cccc(C)c3)c2=O)cc1`, the concentration for half-maximal inhibition (IC50) was 5.39 µM (run 1) and 6.79 µM (run 2).
For `COc1ccc(Oc2c(C#N)cnn(-c3ccc(C(C)C)cc3)c2=O)cc1`, the IC50 (run 1) was 7.47 µM and the IC50 (run 2) was 7.6 µM.
For the compound `COc1ccc(Oc2c(-c3ccccc3)cnn(-c3ccc(C)cc3)c2=O)cc1`, the IC50 result (run 1) was “inactive”. The IC50 (run 2) was > 20 µM (inactive).
The matching figures for `COc1ccc(Oc2c(Cl)cnn(-c3ccc(C(C)C)c(C)c3)c2=O)cc1`: 1.96 µM and 1.71 µM.
On to `COc1ccc(Oc2c(Cl)cnn(-c3ccc(C(C)C)cc3)c2=O)cc1`, for which the half-maximal inhibitory concentration (IC50) is, setting by setting: (run 1) 3.1 µM; (run 2) 4.3 µM.
On to `CCc1ccc(Oc2c(Cl)cnn(-c3ccc(C)cc3)c2=O)cc1`, for which the IC50 runs as follows: (run 1) 5.02 µM; (run 2) 3.09 µM.
As to `CCC(C)c1ccc(-n2ncc(Cl)c(Oc3ccc(OC)cc3)c2=O)cc1` (centres undefined), the IC50 (run 1) was 2.17 µM and the IC50 (run 2) is 4.71 µM.
Consider `COc1ccc(Oc2c(Cl)cnn(-c3ccc(C(C)(C)C)cc3)c2=O)cc1`, for which the IC50 was 2.7 µM (run 1) and 8.99 µM (run 2).
The matching figures for `CCc1ccc(-n2ncc(Cl)c(Oc3ccc(OC)cc3)c2=O)cc1`: 3.92 µM and “inactive”.
For `COc1ccc(Oc2c(Cl)cnn(-c3cccc(C(C)C)c3)c2=O)cc1`, the IC50 is, setting by setting: (run 1) 1.72 µM; (run 2) 2.37 µM.
For `CCOc1ccc(Oc2c(Cl)cnn(-c3ccc(C)cc3)c2=O)cc1`, where the note is “run 1”, the IC50 result is “inactive”. Under “run 2”, the IC50 is 8.62 µM.
Taken in the same sequence, the figures for `COc1ccc(Oc2c(Cl)cnn(-c3cccc4ccccc34)c2=O)cc1` were 8.39 µM and 4.46 µM.
Taken in the same sequence, the figures for `COc1ccc(Oc2c(Br)cnn(-c3ccc(C)cc3)c2=O)cc1` were “inactive” and “inactive”.
In the case of `COc1ccc(Oc2c(C=O)cnn(-c3ccc(C(C)C)cc3)c2=O)cc1`, the IC50 reads like this: (run 1) 4.78 µM; (run 2) 5.15 µM.
With `Cc1ccc(-n2ncc(Cl)c(Oc3ccc(OC(F)(F)F)cc3)c2=O)cc1`, the IC50 was 2.9 µM (run 1) and 4.98 µM (run 2).
Take `COC(=O)c1cnn(-c2ccc(C(C)C)cc2)c(=O)c1Oc1ccc(OC)cc1`: the IC50 was 6.89 µM (run 1) and 4.95 µM (run 2).
Take `COc1ccc(Oc2c(-c3ccco3)cnn(-c3ccc(C)cc3)c2=O)cc1`: the IC50 result (run 1) was “inactive”. Also, the IC50 (run 2) is > 20 µM (inactive).
As to `Cc1ccc(-n2ncc(Cl)c(Oc3ccc(CO)cc3)c2=O)cc1`, the IC50 is > 20 µM (inactive) (run 1) and > 20 µM (inactive) (run 2).
`Cc1ccc(-n2ncc(Cl)c(Oc3ccc(C(F)(F)F)cc3)c2=O)cc1`: the IC50 by setting is: (run 1) 5.51 µM; (run 2) 8.4 µM.
In the case of `COc1ccc(Oc2c(C)cnn(-c3ccc(C(C)C)cc3)c2=O)cc1`, the IC50 (run 1) was 9.81 µM and the IC50 (run 2) is 8.05 µM.
Turning to `COc1ccc(Oc2c(Cl)cnn(-c3cc(C)cc(C)c3)c2=O)cc1`, the IC50 was 3.94 µM (run 1), 5.04 µM (run 2) and 2.68 µM (run 3).
On to `COc1ccc(Oc2c(Cl)cnn(-c3ccc(C)cc3)c2=O)cc1`, for which the IC50 entry (run 1) was “inactive” and the IC50 entry (run 2) was “inactive”.
Regarding `COc1ccc(Oc2c(C3CC3)cnn(-c3ccc(C)cc3)c2=O)cc1`, the IC50 (run 1) was 5.41 µM. For the same compound, the IC50 result (run 2) is “inactive”.
Taken in the same sequence, the figures for `COc1ccc(Oc2c(-c3cccs3)cnn(-c3ccc(C)cc3)c2=O)cc1` were > 20 µM (inactive) and > 20 µM (inactive).
